From patent publication US20010047099A1, “4-aminopicolinates and their use as herbicides” (priority 2000, published 2001)
Like-named read-outs stand apart in the source and are kept apart here.

Columns and labels:
Format in all cases: in vivo
[1] = tested on: crabgrass (Digitaria sanguinalis); test: Preemergence herbicidal activity; details: pre-emergence, 504 h
Outline: (§1)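 Visual injury score, 0-100 percent (0 = no injury, 100 = complete kill or no germination), taken 3 weeks after treatment relative to untreated plants. Test solutions in water/Tween 155 with acetone/DMSO carrier were sprayed onto the soil of freshly seeded pots. Greenhouse, 15 hr light.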

[2] = tested on: Rox orange sorghum (sorghum bicolor); test: Preemergence herbicidal activity; details: pre-emergence, 504 h
Outline: as §1

[3] = tested on: lambsquarters (Chenopodium album); test: Preemergence herbicidal activity; details: pre-emergence, 504 h
Outline: as §1

[4] = tested on: blackgrass (Alopecurus myosuroides); test: Preemergence herbicidal activity; details: pre-emergence, 504 h
Outline: as §1

[5] = tested on: crabgrass (Digitaria sanguinalis); test: Postemergence herbicidal activity; details: post-emergence, 336 h
Outline: (§2)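 Greenhouse plants at first or second true leaf stage sprayed to coverage with compound in acetone/water/isopropanol/DMSO/crop oil/surfactant mixture; 1 ppm ≈ 1 g/Ha. Plants sub-irrigated afterward. Injury scored visually after 2 weeks versus untreated plants, 0 (none) to 100% (complete kill).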

[6] = tested on: pigweed (Amaranthus retroflexus); test: Postemergence herbicidal activity; details: Amaranthus retroflexus, post-emergence, 336 h, Table 2, rate 125 ppm, after 2 weeks, read-out: POSTMERGENCE HERBICIDAL ACTIVITY % CONTROL AMARE
Outline: as §2

[7] = tested on: Rox orange sorghum (sorghum bicolor); test: Postemergence herbicidal activity; details: post-emergence, 336 h
Outline: as §2

[8] = tested on: velvetleaf (Abutillon theophrasti); test: Postemergence herbicidal activity; details: Abutilon theophrasti, post-emergence, 336 h, Table 2, rate 125 ppm, after 2 weeks, read-out: POSTMERGENCE HERBICIDAL ACTIVITY % CONTROL ABUTH
Outline: as §2

wild oats (Avena fatua) = test: Postemergence herbicidal activity; details: post-emergence, 336 h
Outline: as §2

[9] = tested on: blackgrass (Alopecurus myosuroides); test: Postemergence herbicidal activity; details: post-emergence, 336 h
Outline: as §2

[10] = Table 7, rate 35 g/Ha, after 3 weeks, read-out: PREEMERGENCE HERBICIDAL ACTIVITY % CONTROL DIGSA
[11] = Table 7, rate 35 g/Ha, after 3 weeks, read-out: PREEMERGENCE HERBICIDAL ACTIVITY % CONTROL SORBI
[12] = Table 7, rate 35 g/Ha, after 3 weeks, read-out: PREEMERGENCE HERBICIDAL ACTIVITY % CONTROL CHEAL
[13] = Table 7, rate 35 g/Ha, after 3 weeks, read-out: PREEMERGENCE HERBICIDAL ACTIVITY % CONTROL ALOMY
[14] = Table 2, rate 125 ppm, after 2 weeks, read-out: POSTMERGENCE HERBICIDAL ACTIVITY % CONTROL DIGSA
[15] = Table 2, rate 125 ppm, after 2 weeks, read-out: POSTMERGENCE HERBICIDAL ACTIVITY % CONTROL SORBI
[16] = Table 2, rate 125 ppm, after 2 weeks, read-out: POSTMERGENCE HERBICIDAL ACTIVITY % CONTROL AVEFA
[17] = Table 2, rate 125 ppm, after 2 weeks, read-out: POSTMERGENCE HERBICIDAL ACTIVITY % CONTROL ALOMY

**Q.** `Nc1cc(Br)nc(C(=O)O)c1Cl` [Compound 14, 4-Amino-6-bromo-3-chloropyridine-2-carboxylic acid] was tested. Which inhibition at 35 g/ha [1, 10] did it give?
**A.** 80%

**Q.** What about the inhibition at 35 g/ha [2, 11] of the same compound?
**A.** 50%

**Q.** And the inhibition at 35 g/ha [3, 12]?
**A.** 100%

**Q.** What about the inhibition at 35 g/ha [4, 13] of the same compound?
**A.** 60%

**Q.** What about the inhibition at 125 ppm [5, 14] of the same compound?
**A.** 65%

**Q.** What about the inhibition at 125 ppm [6] of the same compound?
**A.** 90%

**Q.** What about the inhibition at 125 ppm [7, 15] of the same compound?
**A.** 60%

**Q.** And the inhibition at 125 ppm [8]?
**A.** 85%

**Q.** And the inhibition at 125 ppm (wild oats (Avena fatua); [16])?
**A.** 40%

**Q.** And the inhibition at 125 ppm [9, 17]?
**A.** 50%

**Q.** What does the source list for `COc1c(C(=O)O)nc(Br)c(Cl)c1N` [Compound 42, 4-Amino-6-bromo-5-chloro-3-methoxypyridine-2-carboxylic acid]?
**A.** inhibition at 35 g/ha [1, 10]: 30%; inhibition at 35 g/ha [2, 11]: 20%; inhibition at 35 g/ha [3, 12]: 90%; inhibition at 35 g/ha [4, 13]: 30%

**Q.** For `COC(=O)c1nc(Cl)cc(N)c1Cl` [Compound 3, methyl 4-amino-3,6-dichloropyridine-2-carboxylate], which inhibition at 35 g/ha [1, 10] is on record?
**A.** 40%

**Q.** What about the inhibition at 35 g/ha [2, 11] of the same compound?
**A.** 30%

**Q.** And the inhibition at 35 g/ha [3, 12]?
**A.** 100%

**Q.** Which inhibition at 125 ppm [5, 14] does the source give for `CCOC(=O)c1nc(Cl)cc(N)c1Cl` [Compound 4, ethyl 4-amino-3,6-dichloropyridine-2-carboxylate] here?
**A.** 70%

**Q.** What about the inhibition at 125 ppm [6] of the same compound?
**A.** 100%

**Q.** And the inhibition at 125 ppm [7, 15]?
**A.** 40%

**Q.** What about the inhibition at 125 ppm [8] of the same compound?
**A.** 70%

**Q.** And the inhibition at 125 ppm (wild oats (Avena fatua); [16])?
**A.** 40%

**Q.** And the inhibition at 125 ppm [9, 17]?
**A.** 40%

**Q.** How did the inhibition at 35 g/ha ([1]; read-out: PR[…] % CONTROL DIGSA, Table 7, rate 35 g/Ha, after 3 weeks) turn out when `Nc1cc(Cl)nc(C(=O)O)c1Cl` [Compound 1, 4-Amino-3,6-dichloropyridine-2-carboxylic acid] was run?
**A.** 20%

**Q.** What about the inhibition at 35 g/ha ([2]; read-out: PR[…] % CONTROL SORBI, Table 7, rate 35 g/Ha, after 3 weeks) of the same compound?
**A.** 60%

**Q.** What about the inhibition at 35 g/ha ([3]; read-out: PR[…] % CONTROL CHEAL, Table 7, rate 35 g/Ha, after 3 weeks) of the same compound?
**A.** 99%

**Q.** And the inhibition at 35 g/ha ([4]; read-out: PR[…] % CONTROL ALOMY, Table 7, rate 35 g/Ha, after 3 weeks)?
**A.** 36%

**Q.** And the inhibition at 125 ppm ([5]; read-out: PO[…] % CONTROL DIGSA, Table 2, rate 125 ppm, after 2 weeks, read-out: POSTMERGENCE HERBICIDAL ACTIVITY % CONTROL DIGSA)?
**A.** 60%

**Q.** And the inhibition at 125 ppm ([6]; read-out: PO[…] % CONTROL AMARE)?
**A.** 95%

**Q.** And the inhibition at 125 ppm ([7]; read-out: PO[…] % CONTROL SORBI, Table 2, rate 125 ppm, after 2 weeks, read-out: POSTMERGENCE HERBICIDAL ACTIVITY % CONTROL SORBI)?
**A.** 50%

**Q.** And the inhibition at 125 ppm ([8]; read-out: PO[…] % CONTROL ABUTH)?
**A.** 70%

**Q.** And the inhibition at 125 ppm (wild oats (Avena fatua); read-out: PO[…] % CONTROL AVEFA, Table 2, rate 125 ppm, after 2 weeks, read-out: POSTMERGENCE HERBICIDAL ACTIVITY % CONTROL AVEFA)?
**A.** 50%

**Q.** What about the inhibition at 125 ppm ([9]; read-out: PO[…] % CONTROL ALOMY, Table 2, rate 125 ppm, after 2 weeks, read-out: POSTMERGENCE HERBICIDAL ACTIVITY % CONTROL ALOMY) of the same compound?
**A.** 50%

**Q.** `Nc1c(F)c(Cl)nc(C(=O)O)c1Cl` [Compound 19, 4-Amino-3,6-dichloro-5-fluoropyridine-2-carboxylic acid] was tested. Which inhibition at 125 ppm [5, 14] did it give?
**A.** 30%

**Q.** And the inhibition at 125 ppm [6]?
**A.** 60%

**Q.** And the inhibition at 125 ppm [7, 15]?
**A.** 10%

**Q.** What about the inhibition at 125 ppm [8] of the same compound?
**A.** 50%

**Q.** And the inhibition at 125 ppm (wild oats (Avena fatua); [16])?
**A.** 20%

**Q.** What about the inhibition at 125 ppm [9, 17] of the same compound?
**A.** 20%
